The values below come from US8338472B2, “Hexahydrocyclopentyl[F]indazole carboxamides and derivatives thereof as selective glucocorticoid receptor modulators” (Merck Sharp & Dohme Corp., priority 2008, dated 2012).

Structures are written as SMILES. Read-outs that look alike come from different tables or passages of the source.

Test [1] concerns the target T1, Glucocorticoid Receptor (Homo sapiens, UniProt P04150).
T1 construct: These cells express large amount of the GR and are very responsive to GC treatment; endogenous in cells; host or cells: A549 cells transiently transfected with the MMTV-LUC reporter
T1 sequence (P04150 1-777): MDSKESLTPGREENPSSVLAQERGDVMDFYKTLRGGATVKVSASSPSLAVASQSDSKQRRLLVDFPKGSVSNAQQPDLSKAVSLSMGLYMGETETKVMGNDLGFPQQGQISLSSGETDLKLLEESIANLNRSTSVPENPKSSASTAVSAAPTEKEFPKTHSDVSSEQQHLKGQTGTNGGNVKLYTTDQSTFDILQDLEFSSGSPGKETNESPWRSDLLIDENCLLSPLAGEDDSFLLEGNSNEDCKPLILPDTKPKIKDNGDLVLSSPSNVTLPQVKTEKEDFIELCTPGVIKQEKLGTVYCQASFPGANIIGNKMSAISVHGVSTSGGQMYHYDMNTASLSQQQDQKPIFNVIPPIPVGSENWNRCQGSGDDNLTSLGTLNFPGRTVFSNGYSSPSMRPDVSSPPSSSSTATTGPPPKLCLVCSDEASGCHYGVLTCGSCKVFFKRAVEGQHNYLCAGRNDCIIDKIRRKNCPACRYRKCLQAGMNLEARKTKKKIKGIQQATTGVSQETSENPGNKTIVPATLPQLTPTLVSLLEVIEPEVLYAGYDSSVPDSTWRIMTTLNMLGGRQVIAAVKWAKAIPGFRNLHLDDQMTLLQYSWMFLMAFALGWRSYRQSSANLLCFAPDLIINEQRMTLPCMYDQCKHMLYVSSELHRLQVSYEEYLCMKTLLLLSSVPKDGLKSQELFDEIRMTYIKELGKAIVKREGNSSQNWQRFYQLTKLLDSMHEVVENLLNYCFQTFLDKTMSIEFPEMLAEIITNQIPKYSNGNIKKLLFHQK
Put plainly: Trans-Activation Modulation of Glucocorticoid Receptor (GRAMMER), MMTV-LUC reporter gene in A549 cells. The note with it: Table 1; for Emax: A549, A549 cells, read-out: Transactivation A549 Cells GRAMMER Emax; for EC50: inflection point, read-out: Transactivation A549 Cells GRAMMER IP. The format is cell-based. Put shortly: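 Luciferase from a transiently transfected MMTV-LUC reporter was measured after 24 h compound exposure (≤1% DMSO) in A549 or MDA-MB-453 cells. For antagonism, the decrease of 10 nM dexamethasone-induced signal was calculated. For agonism, Emax was referenced to 300 nM dexamethasone.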

Test [2] addresses T2, human GR (Homo sapiens, UniProt P04150).
T2 construct: U937 cells contain an endogenous glucocorticoid receptor (GR); endogenous in cells; host or cells: U937 cells stably transfected with the TNF-alpha promoter/beta-lactamase reporter
T2 sequence (P04150 1-777): T1 sequence (P04150 1-777)
Put plainly: Transrepression Assay (GITAR), TNFα-β-lactamase reporter gene in U937 cells. The settings on record: for GITAR Greater than by GRAMMER % SEP: GITAR Emax minus GRAMMER Emax; for EC50: inflection point, read-out: Transrepression U937 Cells GITAR IP. The format is cell-based. The gist of the method:
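Repression of PMA (5 ng/ml final)/LPS (100 ng/ml final)-induced TNF-α promoter activity, read as β-lactamase cleavage of CCF2-AM, in stably transfected U937 cells expressing native GR. Compound added 30-45 min before stimulation, overnight (~18 hr) 37° C; normalized to 100 nM dexamethasone (100%).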

Test [3] addresses T3, glucocorticoid receptor (GR) (Homo sapiens, UniProt P04150).
T3 sequence (P04150 1-777): T1 sequence (P04150 1-777)
The test can be described thus: Ligand binding assay (GR BIND), 3H-dexamethasone displacement in MDA-MB-453 cell lysate. The note with it: GR BIND Ki, Table 1.

The mark [4] stands for this setting: Emax relative to 300 nM dexamethasone.
Setting [5] is: U-937, U937 cells, activity repressed by 100 nM dexamethasone = 100%, Table 1, read-out: Transrepression U937 Cells GITAR Emax.
Setting [6] is: U-937, text statement, 100 nM dexamethasone = 100%, read-out: maximal activity in the transrepression assay (GITAR).

Turning to `COc1cccc(CN(C)C(=O)[C@H]2CCC3=Cc4c(cnn4-c4ccc(F)cc4)C[C@@]32C)c1` [Compound 47, (4αR,5S)-1-(4-fluorophenyl)-N-(3-methoxybenzyl)-N,4α-dimethyl-1,4,4α,5,6,7-hexahydrocyclopenta[f]indazole-5-carboxamide], the Emax is 7.4% in test [1] (setting [4]), 27.8% in test [2] (setting [5]) and greater than 5% in test [2] (setting [6]). Further, the EC50 in test [1] (A549 cells) is 2020 nM; in test [2] (U937 cells, Table 1), 1690 nM. The “GITAR Greater than by GRAMMER % SEP” value in test [2] (Table 1) stood at 20.4%. Moreover, the affinity in test [3], expressed as Ki, was 7.1 nM.
For `C[C@]12Cc3cnn(-c4ccc(F)cc4)c3C=C1CC[C@@H]2C(=O)N(CCO)Cc1ccccc1CS(=O)(=O)c1ccccc1` [Compound 30, (4αR,5S)-1-(4-fluorophenyl)-N-(2-hydroxyethyl)-4α-methyl-N-{2-[(phenylsulfonyl)methyl]benzyl}-1,4,4α,5,6,7-hexahydrocyclopenta[f] carboxamide], the Emax in test [1] (setting [4]) was 4.3%; in test [2] (setting [5]) it was 35.5%; in test [2] (setting [6]), greater than 5%. Also, the EC50 is 1110 nM in test [1] (A549 cells) and 1080 nM in test [2] (U937 cells, Table 1). For the same compound, the “GITAR Greater than by GRAMMER % SEP” value in test [2] (Table 1) is recorded as 31.2%. This compound returned a Ki in test [3] of 12.2 nM.
For `COc1ccccc1CCN(CC(O)CC(F)(F)F)C(=O)[C@H]1CCC2=Cc3c(cnn3-c3ccc(F)cc3)C[C@@]21C` (stereo partly drawn) [Compound 86, (4αR,5S)-1-(4-fluorophenyl)-N-[2-(2-methoxyphenyl)ethyl]-4α-methyl-N-(4,4,4-trifluoro-2-hydroxybutyl)-1,4,4α,5 ,6,7-hexahydrocyclopenta[f]indazole-5-carboxamide], the Emax in test [1] (setting [4]) was 18.8%; in test [2] (setting [5]), 53.9%; in test [2] (setting [6]) it was greater than 5%. The EC50 in test [1] (A549 cells) stood at 412 nM; in test [2] (U937 cells, Table 1), 869 nM. Also, the “GITAR Greater than by GRAMMER % SEP” value in test [2] (Table 1) came to 35.1%. In test [3], the affinity, expressed as Ki, was 11.5 nM.
For the compound `C[C@]12Cc3cnn(-c4ccc(F)cc4)c3C=C1CC[C@@H]2C(=O)N(CCc1ccccc1F)CC(O)C(F)(F)F` (stereo partly drawn) [Compound 92, (4αR,5S)-1-(4-fluorophenyl)-N-[2-(2-fluorophenyl)ethyl]-4α-methyl-N(3,3,3-trifluoro-2-hydroxypropyl)-1,4,4α,5,6,7-hexahydrocyclopenta[f]indazole-5-carboxamide], in test [1] (A549 cells, Emax relative to 300 nM dexamethasone), the “Transactivation A549 Cells GRAMMER Emax” value worked out at 40.2%. For the same compound, the EC50 in test [1] (A549 cells) is 285 nM; in test [2] (U937 cells, Table 1), 143 nM. Further, in test [2] (Table 1), the “GITAR Greater than by GRAMMER % SEP” value worked out at 4.7%. Also, in test [2] (U937 cells, activity repressed by 100 nM dexamethasone = 100%, Table 1), the “Transrepression U937 Cells GITAR Emax” value is 44.9%. Also, the Ki in test [3] was found to be 1.5 nM.
On to `CCCCN(CC)C(=O)[C@H]1CCC2=Cc3c(cnn3-c3ccc(F)cc3)C[C@@]21C` [Compound 12, (4αR,5S)-N-butyl-N-ethyl-1-(4-fluorophenyl)-4α-methyl-1,4 ,4α,5,6,7-hexahydrocyclopenta[f]indazole-5-carboxamide], for which the Emax in test [1] (setting [4]) is 29.7%; in test [2] (setting [5]), 56.3%; in test [2] (setting [6]) it was greater than 5%. Besides, the EC50 in test [1] (A549 cells) was found to be 376 nM; in test [2] (U937 cells, Table 1), 662 nM. Besides, the “GITAR Greater than by GRAMMER % SEP” value in test [2] (Table 1) worked out at 26.6%. Moreover, the affinity in test [3] corresponds to a Ki of 1.4 nM.
As to `Cc1ccc(CN(CCO)C(=O)[C@H]2CCC3=Cc4c(cnn4-c4ccc(F)cc4)C[C@@]32C)cc1F` [Compound 27, (4αR,5S)-N-(3-fluoro-4-methylbenzyl)-1-(4-fluorophenyl)-N-(2-hydroxyethyl)-4α-methyl-1,4,4α,5,6,7-hexahydrocyclopenta[f]indazole-5-carboxamide], the Emax in test [1] (setting [4]) was 10.2%; in test [2] (setting [5]), 55.8%; in test [2] (setting [6]), greater than 5%. The EC50 is 2160 nM in test [1] (A549 cells) and 1620 nM in test [2] (U937 cells, Table 1). Also, in test [2] (Table 1), the “GITAR Greater than by GRAMMER % SEP” value is 45.6%. Further, the affinity in test [3], expressed as Ki, was 13.9 nM.
Regarding `CCNC(=O)CN(CCc1ccccc1)C(=O)[C@H]1CCC2=Cc3c(cnn3-c3ccc(F)cc3)C[C@@]21C` [Compound 24, (4αR,5S)-N-[2-(ethylamino)-2-oxoethyl]-1-(4-fluorophenyl)-4α-methyl-N-(2-phenylethyl)-1,4,4α,5,6,7-hexahydrocyclopenta[f]indazole-5-carboxanide], the figures for the Emax in test [1] (setting [4]), in test [2] (setting [5]) and in test [2] (setting [6]) were 9.2%, 14.5% and greater than 5%, respectively. Further, the EC50 came out at 615 nM in test [1] (A549 cells) and 405 nM in test [2] (U937 cells, Table 1). In addition, the “GITAR Greater than by GRAMMER % SEP” value in test [2] (Table 1) is 5.3%. In addition, the Ki in test [3] was found to be 4.7 nM.
In the case of `C[C@]12Cc3cnn(-c4ccc(F)cc4)c3C=C1CC[C@@H]2C(=O)N(Cc1ccccc1F)CC(O)C(F)(F)F` (stereo partly drawn) [Compound 59, (4αR,5S)-N-(2-fluorobenzyl)-1-(4-fluorophenyl)-4α-methyl-N-(3,3,3-trifluoro-2-hydroxypropyl)-1,4,4α,5,6,7-hexahydrocyclopenta[f]indazole-5-carboxamide], the Emax is 75.2% in test [1] (setting [4]), 76.7% in test [2] (setting [5]) and greater than 5% in test [2] (setting [6]). In addition, the EC50 in test [1] (A549 cells) was determined as 117 nM; in test [2] (U937 cells, Table 1), 91.5 nM. Further, the “GITAR Greater than by GRAMMER % SEP” value in test [2] (Table 1) is on record as 1.5%. In addition, the Ki in test [3] is 3.9 nM.
`CN(CCC(F)(F)F)C(=O)[C@H]1CCC2=Cc3c(cnn3-c3ccc(F)cc3)C[C@@]21C` [Compound 90, (4αR,5S)-1-(4-fluorophenyl)-N,4α-dimethyl-N-(3,3,3-trifluoropropyl)-1,4,4α,5,6,7-hexahydrocyclopenta[f]indazole-5-carboxamide]: the Emax in test [1] (setting [4]) was 20.3%; in test [2] (setting [5]) it was 44.5%; in test [2] (setting [6]) it was greater than 5%. In addition, the EC50 came to 565 nM in test [1] (A549 cells) and 609 nM in test [2] (U937 cells, Table 1). For the same compound, the “GITAR Greater than by GRAMMER % SEP” value in test [2] (Table 1) was 24.2%. This compound also registered a Ki in test [3] of 17.3 nM.
`C[C@]12Cc3cnn(-c4ccc(F)cc4)c3C=C1CC[C@@H]2C(=O)N1CCCC(Cc2cccc(C(F)(F)F)c2)C1` (stereo partly drawn) [Compound 21, (4αR,5S)-1-(4-fluorophenyl)-4α-methyl-5-({3-[3-(trifluoromethyl)benzyl]piperidin-1-yl}carbonyl)-1,4,4α,5,6,7-hexahydrocyclopenta[f]indazole]: the Emax was 26.2% in test [1] (setting [4]), 28.1% in test [2] (setting [5]) and greater than 5% in test [2] (setting [6]). Also, the EC50 in test [1] (A549 cells) worked out at 569 nM; in test [2] (U937 cells, Table 1) it was 742 nM. For the same compound, the “GITAR Greater than by GRAMMER % SEP” value in test [2] (Table 1) is 1.9%. The compound further displayed a Ki in test [3] of 2.3 nM.
On to `CCCN(CCC)C(=O)[C@H]1CCC2=Cc3c(cnn3-c3ccc(F)cc3)C[C@@]21C` [Compound 1, (4αR,5S)-1-(4-Fluorophenyl)-4α-methyl-N,N-dipropyl-1,4,4α,5,6,7-hexahydrocyclopenta[f]indazole-5-carboxamide], for which the Emax in test [1] (setting [4]) is 45.3%; in test [2] (setting [5]), 67.5%; in test [2] (setting [6]), greater than 5%. Moreover, the EC50 in test [1] (A549 cells) amounted to 177 nM; in test [2] (U937 cells, Table 1), 328 nM. Further, the “GITAR Greater than by GRAMMER % SEP” value in test [2] (Table 1) is 22.2%. Moreover, the Ki in test [3] worked out at 1.7 nM.
On to `C[C@]12Cc3cnn(-c4ccc(F)cc4)c3C=C1CC[C@@H]2C(=O)N1CCC(C(F)(F)F)CC1` [Compound 42, (4αR,5S)-1-(4-fluorophenyl)-4α-methyl-5-{[4-(trifluoromethyl)piperidin-1-yl]carbonyl}-1,4,4α,5,6,7-hexahydrocyclopenta[f]indazole], for which the Emax was 29.5% in test [1] (setting [4]), 64.8% in test [2] (setting [5]) and greater than 5% in test [2] (setting [6]). The EC50 was determined as 419 nM in test [1] (A549 cells) and 889 nM in test [2] (U937 cells, Table 1). In addition, the “GITAR Greater than by GRAMMER % SEP” value in test [2] (Table 1) came to 35.3%. The same compound yielded a Ki in test [3] of 21.2 nM.
